The text below walks through data of US20250152585A1, “PHARMACEUTICAL COMPOUND” (Duke Street Bio Limited, priority 2022, published 2025).

Like-named read-outs stand apart in the source and are kept apart here.

In assay [1] the target is T1, N-terminally FLAG-tagged PARP2 (amino acids 1-583) (Homo sapiens, UniProt Q9UGN5).
T1 construct: N-terminally FLAG-tagged PARP2 (amino acids 1-583)
As to the kind of experiment: PARP2 probe displacement HTRF assay. Conditions: binned Kd. Type of assay: binding. How it is done:
Data analysis was performed identical as for PARP1.

The target in assay [2] is T2, full length N-terminally FLAG-tagged PARP1 (Homo sapiens, UniProt P09874). As to the kind of experiment: PARP1 probe displacement HTRF assay. The settings on record: for Selectivity: PARP1 over PARP2, ratio Kd (PARP2)/Kd (PARP1); for Kd: binned Kd. Background: In TR-FRET formats the signal depends on donor and acceptor labels being close together.
T2 sequence (P09874 whole entry): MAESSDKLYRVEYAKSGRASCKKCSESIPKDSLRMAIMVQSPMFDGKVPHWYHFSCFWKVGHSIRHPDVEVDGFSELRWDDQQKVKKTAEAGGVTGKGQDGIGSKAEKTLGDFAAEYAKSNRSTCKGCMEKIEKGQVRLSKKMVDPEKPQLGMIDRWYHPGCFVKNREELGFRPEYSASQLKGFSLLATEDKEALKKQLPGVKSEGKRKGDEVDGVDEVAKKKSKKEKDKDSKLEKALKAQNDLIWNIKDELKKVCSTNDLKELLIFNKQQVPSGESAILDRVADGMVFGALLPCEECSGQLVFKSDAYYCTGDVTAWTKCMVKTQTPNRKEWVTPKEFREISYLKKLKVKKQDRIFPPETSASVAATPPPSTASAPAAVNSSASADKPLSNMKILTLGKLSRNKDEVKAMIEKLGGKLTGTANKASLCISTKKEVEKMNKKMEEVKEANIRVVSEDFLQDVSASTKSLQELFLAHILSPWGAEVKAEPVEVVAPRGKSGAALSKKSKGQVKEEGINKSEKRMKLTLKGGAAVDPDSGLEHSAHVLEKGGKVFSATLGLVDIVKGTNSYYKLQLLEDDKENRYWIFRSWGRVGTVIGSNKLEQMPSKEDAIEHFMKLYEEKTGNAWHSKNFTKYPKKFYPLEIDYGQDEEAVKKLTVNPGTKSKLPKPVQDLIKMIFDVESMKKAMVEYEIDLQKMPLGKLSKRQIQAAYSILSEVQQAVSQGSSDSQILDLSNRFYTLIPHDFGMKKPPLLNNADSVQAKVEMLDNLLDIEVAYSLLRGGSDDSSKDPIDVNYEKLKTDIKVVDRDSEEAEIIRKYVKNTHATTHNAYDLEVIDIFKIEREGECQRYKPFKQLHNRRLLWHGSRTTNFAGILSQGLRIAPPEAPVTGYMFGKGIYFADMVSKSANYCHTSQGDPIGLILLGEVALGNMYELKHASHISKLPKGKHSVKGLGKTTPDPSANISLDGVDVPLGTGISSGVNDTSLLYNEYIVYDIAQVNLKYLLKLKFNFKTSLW
Assay [3] has as its target T2, full length N-terminally FLAG-tagged PARP1. As to the kind of experiment: PARP1 biochemical DELFIA assay (auto-PARylation). The arrangement: recombinant full length human N-terminally FLAG-tagged PARP1.
The mark [4] stands for this setting: read-out: PARP1 HTRF, PARP1 probe displacement HTRF.
[5] abbreviates: binned IC50, PARP1 biochemical DELFIA assay.
Setting [6] is: read-out: PARP1 HTRF, probe displacement HTRF.
[7] abbreviates: binned IC50, biochemical auto-PARylation assay.

T1 sequence (Q9UGN5 whole entry, the tested form may be a part): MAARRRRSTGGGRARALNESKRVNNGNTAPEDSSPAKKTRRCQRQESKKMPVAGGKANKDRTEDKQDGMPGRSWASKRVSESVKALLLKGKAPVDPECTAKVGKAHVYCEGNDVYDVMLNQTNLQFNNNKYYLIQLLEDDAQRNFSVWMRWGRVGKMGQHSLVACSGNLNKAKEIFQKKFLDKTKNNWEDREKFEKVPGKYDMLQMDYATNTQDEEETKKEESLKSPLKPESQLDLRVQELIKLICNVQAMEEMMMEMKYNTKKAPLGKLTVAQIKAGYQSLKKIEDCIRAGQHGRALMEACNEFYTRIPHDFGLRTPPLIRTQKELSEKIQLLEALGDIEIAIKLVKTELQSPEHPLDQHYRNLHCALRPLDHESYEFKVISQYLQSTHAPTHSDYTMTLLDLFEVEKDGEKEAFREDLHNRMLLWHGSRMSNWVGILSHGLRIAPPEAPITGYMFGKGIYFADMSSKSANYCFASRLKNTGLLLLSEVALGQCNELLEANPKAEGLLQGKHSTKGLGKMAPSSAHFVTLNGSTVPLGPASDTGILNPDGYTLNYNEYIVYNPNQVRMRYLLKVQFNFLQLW

Consider `CNC(=O)c1ccc(N2CCC(N3CCC(c4nc5cccc(Cl)c5c(=O)[nH]4)C3)CC2)cn1` (single isomer, unassigned) [Compound 85b], for which the Kd was 10 to 100 nM in assay [1] (PARP2 probe displacement HTRF) and less than 10 nM in assay [2] (setting [4]). Besides, the Selectivity result in assay [2] (probe displacement HTRF) is “++ (++ indicates a value of 50 to less than 100)”. The IC50 in assay [3] (setting [5]) was less than 10 nM.
In the case of `O=C(NCCF)c1ccc(N2CCC(N3CCC(c4nc5ccccc5c(=O)[nH]4)C3)CC2)cn1` (single isomer, unassigned) [Compound 117b], the Kd in assay [1] (PARP2 probe displacement HTRF) is 100 to 1000 nM; in assay [2] (setting [4]) it was less than 10 nM. For the same compound, in assay [2] (probe displacement HTRF), the Selectivity result was “+++ (+++ indicate a value of at least 100)”. Besides, the IC50 in assay [3] (setting [5]) is less than 10 nM.
As to `CCNC(=O)c1ccc(N2CCC(N3CCCC(c4nc5ccccc5c(=O)[nH]4)C3)CC2)cn1` (single isomer, unassigned) [Compound 122a], the Kd in assay [1] (PARP2 probe displacement HTRF) is greater than 10000 nM; in assay [2] (setting [4]), 10 to 100 nM. Moreover, the Selectivity result in assay [2] (probe displacement HTRF) was “+++ (+++ indicate a value of at least 100)”. In addition, in assay [3] (setting [5]), the IC50 was less than 10 nM.
Take `CCc1ccc(C2CCN(C3CCN(c4ccc(C(=O)NCC(F)(F)F)nc4F)CC3)C2)[nH]c1=O` (single isomer, unassigned) [Compound 285b]: the Kd in assay [1] (probe displacement HTRF) is greater than 10000 nM; in assay [2] (setting [6]) it was less than 10 nM. Moreover, the Selectivity entry in assay [2] (probe displacement HTRF) is “+++ (+++ indicate a value of at least 100)”. Moreover, the IC50 in assay [3] (setting [7]) is less than 10 nM.
For the compound `CNC(=O)c1ccc(N2CCC(N3CCC(C)(c4nc5ccccc5c(=O)[nH]4)C3)CC2)cn1` (single isomer, unassigned) [Compound 67b], the Kd in assay [1] (PARP2 probe displacement HTRF) was 1000 to 10000 nM; in assay [2] (setting [4]), 100 to 1000 nM. In assay [2] (probe displacement HTRF), the Selectivity entry was “+ (+ indicates a value of 10 to less than 50)”. Besides, in assay [3] (setting [5]), the IC50 is 100 to 1000 nM.
For the compound `CNC(=O)c1ccc(N2CCC(N3CCC(c4cc5c(C(F)(F)F)nn(C)c5c(=O)[nH]4)C3)CC2)cn1` (racemic) [Compound 392rac], the Kd in assay [1] (probe displacement HTRF) was greater than 10000 nM; in assay [2] (setting [6]) it was 100 to 1000 nM. Besides, the Selectivity result in assay [2] (probe displacement HTRF) is listed as “+ (+ indicates a value of 10 to less than 50)”. For the same compound, in assay [3] (setting [7]), the IC50 was in the range of 100 to 1000 nM.
As for `CCc1ccc(C2CCN(C3CCN(c4ccc(C(=O)NCCF)nc4)CC3)C2)[nH]c1=O` (single isomer, unassigned) [Compound 165b], the Kd is 1000 to 10000 nM in assay [1] (PARP2 probe displacement HTRF) and 10 to 100 nM in assay [2] (setting [4]). In addition, in assay [2] (probe displacement HTRF), the Selectivity result is “+++ (+++ indicate a value of at least 100)”. For the same compound, the IC50 in assay [3] (setting [5]) lay in the range of 10 to 100 nM.
On to `N#Cc1ccc(N2CCC(N3CCC(c4cc5cccc(F)c5c(=O)[nH]4)C3)CC2)c(Cl)c1` (single isomer, unassigned) [Compound 378b], for which the Kd is 1000 to 10000 nM in assay [1] (probe displacement HTRF) and less than 10 nM in assay [2] (setting [6]). Also, the Selectivity entry in assay [2] (probe displacement HTRF) is recorded as “+++ (+++ indicate a value of at least 100)”. In assay [3] (setting [7]), the IC50 is less than 10 nM.
In the case of `CNC(=O)c1ccc(N2CCC(N3CCC(c4ccc(CC5CC5)c(=O)[nH]4)C3)CC2)cn1` (single isomer, unassigned) [Compound 213a], the values for the Kd in assay [1] (PARP2 probe displacement HTRF) and in assay [2] (setting [4]) were greater than 10000 nM and 10 to 100 nM, respectively. In addition, in assay [2] (probe displacement HTRF), the Selectivity result is on record as “+++ (+++ indicate a value of at least 100)”. Further, in assay [3] (setting [5]), the IC50 is 10 to 100 nM.
For the compound `CNC(=O)c1ccc(N2CCC(N3CCC(c4nc5[nH]nc(C(F)(F)F)c5c(=O)[nH]4)C3)CC2)cn1` (single isomer, unassigned) [Compound 162a, N-methyl-5-(4-(3-(4-oxo-3-(trifluoromethyl)-4,5-dihydro-1H-pyrazolo[3,4-d]pyrimidin-6-yl)pyrrolidin-1-yl)piperidin-1-yl)picolinamide], the Kd in assay [1] (PARP2 probe displacement HTRF) lay within 100 to 1000 nM; in assay [2] (PARP1 HTRF, PARP1 probe displacement HTRF), 10 to 100 nM. For the same compound, the Selectivity result in assay [2] (probe displacement HTRF) is on record as “− (− indicates a value of less than 10)”. Further, the IC50 in assay [3] (setting [5]) lay in the range of 10 to 100 nM.
Consider `CNC(=O)c1ccc(N2CCC(N3CCC(c4cc5nccc(N)c5c(=O)[nH]4)C3)CC2)cn1` (racemic) [Compound 200rac], for which the values for the Kd in assay [1] (PARP2 probe displacement HTRF) and in assay [2] (setting [4]) were greater than 10000 nM and 10 to 100 nM, respectively. For the same compound, in assay [2] (probe displacement HTRF), the Selectivity entry is recorded as “+++ (+++ indicate a value of at least 100)”. Also, the IC50 in assay [3] (setting [5]) fell in the range of 10 to 100 nM.

Broadly, the IC50 is the concentration needed to halve the response being measured.
